According to patent US20020028938A1, “Prostaglandin endoperoxide H synthase biosynthesis inhibitors” (priority 1997, published 2002):
Values belong to the compound of their own block, whether it stands above or below them.

Tests used:
[1] = target: T1, recombinant human Cox-1 (r-hu Cox1) (Homo sapiens, UniProt P23219); experiment: Recombinant human PGHS-1 enzyme assay (RHUCX1); format: biochemical
T1 construct: made in house; host or cells: baculovirus/Sf9 insect cells (microsomes)
Summary of the method: (§1)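 Prostaglandin biosynthesis was measured as PGE2 output, read by enzyme immunoassay after a 2.5-minute room-temperature reaction stopped with HCl and neutralized with NaOH.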

[2] = target: T2, recombinant human Cox-2 (r-hu Cox-2) (Homo sapiens, UniProt P35354); experiment: Recombinant human PGHS-2 enzyme assay (RHUCX2); format: biochemical; settings: for inhibition at 0.1 µM / inhibition at 1 µM: read-out: RHUCX2 % Inh. at Dose; for IC50: read-out: RHUCX2 IC50 (parenthetical value)
T2 construct: made in house; host or cells: baculovirus/Sf9 insect cells (microsomes)
T2 sequence (P35354 18-604): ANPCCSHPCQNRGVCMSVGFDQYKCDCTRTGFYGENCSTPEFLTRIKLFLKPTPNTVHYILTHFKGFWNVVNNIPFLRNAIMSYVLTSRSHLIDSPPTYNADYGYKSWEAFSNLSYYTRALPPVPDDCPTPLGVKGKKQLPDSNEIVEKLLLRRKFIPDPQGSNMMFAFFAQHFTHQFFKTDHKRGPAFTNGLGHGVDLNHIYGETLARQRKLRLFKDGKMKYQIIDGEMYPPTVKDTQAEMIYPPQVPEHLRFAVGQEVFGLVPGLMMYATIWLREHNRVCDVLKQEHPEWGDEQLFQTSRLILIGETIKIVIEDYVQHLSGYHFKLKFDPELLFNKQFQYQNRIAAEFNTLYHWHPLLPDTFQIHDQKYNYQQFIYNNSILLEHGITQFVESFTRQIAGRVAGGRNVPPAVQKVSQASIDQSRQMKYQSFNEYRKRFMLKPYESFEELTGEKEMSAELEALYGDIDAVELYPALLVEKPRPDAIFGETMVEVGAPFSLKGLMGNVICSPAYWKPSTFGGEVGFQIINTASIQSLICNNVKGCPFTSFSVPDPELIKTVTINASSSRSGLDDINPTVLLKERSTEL
Summary of the method: as §1

[3] = target: T3, human amnionic whole cell cyclooxygenase-2 (WISH cells) (Homo sapiens, UniProt P35354); experiment: IL-1β induced PGE2 production in WISH cells; format: cell-based; settings: for inhibition at 0.01 µM / inhibition at 0.1 µM / inhibition at 1 µM: read-out: Wish % Inhib. at Dose; for IC50: read-out: Wish IC50 (parenthetical value)
T3 construct: endogenous in cells; host or cells: human amnionic WISH cells, induced with IL-1beta
T3 sequence (P35354 18-604): T2 sequence (P35354 18-604)
Method: EIA reagents for prostaglandin determination were purchased from Perseptive Diagnostics, (Cambridge, Mass.). Prostaglandin E2 (PGE2) levels in lavage fluids were determined after the samples were dried under nitrogen and reconstituted with assay buffer. PGE2 levels in enzyme assays or cell culture media were measured against standards prepared in the same milieu. The immunoassays were conducted as recommended by the manufacturer. The EIA was conducted in 96 well microtiter plates (Nunc Roskilde, Denmark) and optical density was measured using a microplate reader (Vmax, Molecular Devices Corp., Menlo Park, Calif.).
Human amnionic WISH cells were grown to 80% confluence in 48 well plates. Following removal of the growth medium and two washings with Geys Balanced Salt Solutn, 5 ng IL-1β /ml (UBI, Lake Placid, N.Y.) was added to the cells with or without test compound in DMSO (0.01% v/v) in Neuman-Tytell Serumless Medium (GIBCO, Grand Island, N.Y.).

[4] = 100 μM, read-out: RHUCX1 % Inh. at Dose

T1 sequence (P23219 24-599): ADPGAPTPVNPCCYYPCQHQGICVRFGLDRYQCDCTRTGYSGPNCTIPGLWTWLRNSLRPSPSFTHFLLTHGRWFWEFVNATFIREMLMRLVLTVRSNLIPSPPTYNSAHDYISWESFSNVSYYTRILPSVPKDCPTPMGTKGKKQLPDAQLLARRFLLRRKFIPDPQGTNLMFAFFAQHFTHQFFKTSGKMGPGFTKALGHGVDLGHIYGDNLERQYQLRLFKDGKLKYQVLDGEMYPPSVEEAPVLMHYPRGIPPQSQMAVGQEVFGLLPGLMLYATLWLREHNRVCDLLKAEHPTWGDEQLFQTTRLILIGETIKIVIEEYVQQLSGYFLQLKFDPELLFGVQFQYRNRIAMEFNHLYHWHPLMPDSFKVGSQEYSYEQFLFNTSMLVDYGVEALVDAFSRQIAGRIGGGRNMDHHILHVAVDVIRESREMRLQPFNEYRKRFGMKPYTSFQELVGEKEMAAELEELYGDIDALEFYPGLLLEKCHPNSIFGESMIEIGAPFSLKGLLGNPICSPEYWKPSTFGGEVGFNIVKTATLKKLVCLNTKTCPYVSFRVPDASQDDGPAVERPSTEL

- inhibition at 1 µM ([1]; 1 μM, read-out: RHUCX1 % Inh. at Dose): 93%
- inhibition at 0.1 µM [2]: 43%
- inhibition at 1 µM [2]: 88%
- inhibition at 0.01 µM ([3]; 0.01 μM): 36%
- inhibition at 0.1 µM ([3]; 0.1 μM): 100%
- melting point: 195 to 197 °C
SMILES: CS(=O)(=O)c1ccc(-c2cnn(C3C4CC5CC(C4)CC3C5)c(=O)c2-c2ccc(F)cc2)cc1 (centres unmarked) [Example 132, 2-(2-Adamantyl)-4-(4-fluorophenyl)-5-[4-(methylsulfonyl)phenyl]-3(2H)-pyridazinone]

- inhibition at 100 µM [1, 4]: 36%
- inhibition at 0.1 µM [2]: 91%
- inhibition at 1 µM [2]: 96%
- IC50 [3]: 70 nM
- melting point: 108 to 110 °C
SMILES: CC(C)COc1c(-c2ccc(S(C)(=O)=O)cc2)cnn(CC(F)(F)F)c1=O [Example 278, 2-(2,2,2-Trifluoroethyl)-4-(2-methylpropoxy)-5-[4-(methylsulfonyl)phenyl]-3(2H)-pyridazinone]

- inhibition at 100 µM [1, 4]: 0%
- IC50 [2]: 242 nM
- IC50 [3]: 30 nM
- melting point: 182 to 184 °C
SMILES: COc1ccc(Oc2c(-c3ccc(S(C)(=O)=O)cc3)cnn(-c3cccc(Cl)c3)c2=O)cc1 [Example 345, 2-(3-Chloroophenyl)-4-(4-methoxyphenoxy)-5-[4-(methylsulfonyl)phenyl]-3(2H)-pyridazinone]

- IC50 [3]: 34 nM
- melting point: 182 to 183 °C
SMILES: C=Cc1cccc(-n2ncc(-c3ccc(S(C)(=O)=O)cc3)c(-c3ccc(F)cc3)c2=O)c1 [Example 162, 2-(3-Vinylphenyl)-4-(4-fluorophenyl)-5-[4-(methylsulfonyl)phenyl]-3(2H)-pyridazinone]

- inhibition at 0.1 µM [2]: 81%
- inhibition at 1 µM [2]: 97%
- IC50 [3]: 68 nM
SMILES: CS(=O)(=O)c1ccc(-c2cnn(-c3cccc(Cl)c3)c(=O)c2COc2ccc(F)cc2)cc1 [Example 207, 2-(3-Chlorophenyl)-4-(4-fluorophenoxmethyl)-5-[4-(methylsulfonyl)phenyl]-3(2H)-pyridazinone]

- inhibition at 0.1 µM ([3]; 0.1 μM): 15%
- inhibition at 1 µM [3]: 52%
- melting point: 113 to 115 °C
SMILES: CS(=O)(=O)c1ccc(-c2cnn(CC(F)(F)F)c(=O)c2OCc2ccco2)cc1 [Example 271, 2-(2,2,2-Trifluoroethyl)-4-(2-furylmethoxy)-5-[4-(methylsulfonyl)phenyl]-3(2H)-pyridazinone]

- IC50 [3]: 470 nM
- melting point: 148 to 150 °C
SMILES: CS(=O)(=O)c1ccc(-c2cnn(CC(F)(F)F)c(=O)c2OC2CCCC2)cc1 [Example 85, 2-(2,2,2-Trifluoroethyl)-4-cyclopentyloxy-5-[4-(methylsulfonyl)phenyl]-3(2H)-pyridazinone]

- inhibition at 0.01 µM ([3]; 0.01 μM): 47%
- inhibition at 1 µM [3]: 52%
SMILES: CC(C)Nc1c(-c2ccc(S(C)(=O)=O)cc2)cnn(CC(F)(F)F)c1=O [Example 86, 2-(2,2,2-Trifluoroethyl)-4-(2-propylamino)-5-[4-(methylsulfonyl)phenyl]-3(2H)-pyridazinone]

- inhibition at 0.1 µM ([3]; 0.1 μM): 23%
- inhibition at 1 µM [3]: 77%
- melting point: 130 to 132 °C
SMILES: CC(C)Oc1c(-c2ccc(S(C)(=O)=O)cc2)cnn(-c2cccc(Br)c2)c1=O [Example 203, 2-(3-Bromophenyl)-4-(2-propoxy)-5-[4-(methylsulfonyl)phenyl]-3(2H)-pyridazinone]

- RHUCX1 % Inh. at Dose (μM) ([1]; 100 μM): 1 @ 100%
- IC50 [2]: 365 nM
- Wish % Inhib. at Dose (μM) ([3]; 0.01 μM): 57 @ 0.01%
SMILES: CS(=O)(=O)c1ccc(-c2cnn(Cc3ccccc3)c(=O)c2-c2ccc(C(F)(F)F)cc2)cc1 [Example 323, 2-Benzyl-4-(4-trifluormethylphenyl)-5-[4-(methylsulfonyl)phenyl]-3(2H)-pyridazinone]

- inhibition at 100 µM [1, 4]: 4%
- IC50 [2]: 192 nM
- inhibition at 0.01 µM ([3]; 0.01 μM): 50%
SMILES: CS(=O)(=O)c1ccc(-c2cnn(Cc3ccccc3)c(=O)c2-c2cccc([N+](=O)[O-])c2)cc1 [Example 321, 2-Benzyl-4-(3-nitrophenyl)-5-[4-(methylsulfonyl)phenyl]-3(2H)-pyridazinone]

- IC50 [3]: 40 nM
- melting point: 128 to 130 °C
SMILES: CS(=O)(=O)c1ccc(-c2cnn(C3CCc4ccccc43)c(=O)c2-c2ccc(F)cc2)cc1 (centres unmarked) [Example 129, 2-(2,3-Dihydro-1H-inden-1-yl)-4-(4-fluorop,henyl)-5-[4-(methylsulfonyl)phenyl]-3(2H)-pyridazinone]

- Wish % Inhib. at Dose (μM) ([3]; 0.03 μM): 39 @ 0.03%
- Wish % Inhib. at Dose (μM) ([3]; 0.1 μM): 82 @ 0.1%
SMILES: CC(C)CCOc1c(-c2ccc(S(N)(=O)=O)cc2)cnn(C(C)(C)C)c1=O [Example 399]

- IC50 [3]: 29 nM
- melting point: 236 to 238 °C
SMILES: NS(=O)(=O)c1ccc(-c2cnn(Cc3cc(F)c(F)cc3F)c(=O)c2-c2ccc(F)cc2)cc1 [Example 152, 2-(2,4,5-Trifluorobenzyl)-4-(4-fluorophenyl)-5-[4-(aminosulfonyl)phenyl]-3(2H)-pyridazinone]

- IC50 [3]: 50 nM
SMILES: NS(=O)(=O)c1ccc(-c2cnn(C3C=CCCC3)c(=O)c2-c2ccc(F)cc2)cc1 (centres unmarked) [Example 126]

- RHUCX1 % Inh. at Dose (μM) ([1]; 10 μM): 1 @ 10%
- RHUCX1 % Inh. at Dose (μM) ([1]; 100 μM): 48 @ 100%
- RHUCX2 % Inh. at Dose (μM) ([2]; 0.017 μM): 47 @ 0.017%
- RHUCX2 % Inh. at Dose (μM) ([2]; 0.035 μM): 67 @0 .035%
- IC50 [3]: 53 nM
SMILES: CC(C)=CCCOc1c(-c2ccc(S(N)(=O)=O)cc2)cnn(-c2ccc(F)c(F)c2)c1=O [Example 410]

- inhibition at 10 µM ([1]; 10 μM, read-out: RHUCX1 % Inh. at Dose): 54%
- inhibition at 100 µM [1, 4]: 39%
- IC50 [2]: 58 nM
- IC50 [3]: 26 nM
SMILES: C=Cc1ccc(-c2c(-c3ccc(S(C)(=O)=O)cc3)cnn(Cc3ccccc3)c2=O)cc1 [Example 322, 2-Benzyl-4-(4-vinylphenyl)-5-[4-(methylsulfonyl)phenyl]-3(2H)-pridazinone]

- IC50 [3]: 27 nM
SMILES: CS(=O)(=O)c1ccc(-c2cnn(Cc3ccccc3)c(=O)c2-c2ccsc2)cc1 [Example 317, 2-Benzyl-4-(3-thienyl)-5-[4-(methylsulfonyl)phenyl]-3(2H)-pyridazinone]

- IC50 [3]: 50 nM
SMILES: COc1ccc(-c2c(-c3ccc(S(C)(=O)=O)cc3)cnn(Cc3ccccc3)c2=O)cc1F [Example 326, 2-Benzyl-4-(3-fluoro-4-methoxyphenyl)-5-[4-(methylsulfonyl)phenyl]-3(2H)-pyridazinone]

- IC50 [3]: 50 nM
- melting point: 205 °C
SMILES: CS(=O)(=O)c1ccc(-c2cnn(-c3ccc(F)c(Cl)c3)c(=O)c2-c2ccc(Cl)cc2)cc1 [Example 102, 2-(3-Chloro-4-fluorophenyl)-4-(4-chlorophenyl)-5-[4-(methylsulfonyl)phenyl]-3(2H)-pyridazinone]

- IC50 [3]: 60 nM
- melting point: 250 to 260 °C
SMILES: CS(=O)(=O)c1ccc(-c2cnn(-c3ccc(Cl)cc3F)c(=O)c2-c2ccc(F)cc2)cc1 [Example 191, 2-(4-Chloro-2-fluorophenyl)-4-(4-fluorophenyl)-5-[4-(methylsulfonyl)phenyl]-3(2H)-pyridazinone]

- IC50 [3]: 47 nM
SMILES: COc1ccccc1-c1c(-c2ccc(S(C)(=O)=O)cc2)cnn(Cc2ccccc2)c1=O [Example 324, 2-Benzyl-4-(2-methoxyphenyl)-5-[4-(methylsulfonyl)phenyl]-3(2H)-pyridazinone]

- inhibition at 100 µM [1, 4]: 13%
- IC50 [2]: 52 nM
- melting point: 209 to 211 °C
SMILES: CS(=O)(=O)c1ccc(-c2cnn(-c3cc(F)cc(F)c3)c(=O)c2Oc2ccc(F)cc2)cc1 [Example 111, 2-(3,5-Difluorophenyl)-4-(4-fluorophenoxy)-5-[4-(methylsulfonyl)phenyl]-3(2H)-pyridazinone]

- inhibition at 100 µM [1, 4]: 14%
- IC50 [2]: 297 nM
- melting point: 215 to 218 °C
SMILES: CS(=O)(=O)c1ccc(-c2cnn(CC(F)(F)F)c(=O)c2C2CCCCC2)cc1 [Example 240, 2-(2,2,2-Trifluoroethyl)-4-cyclohexyl-5-[4-(methylsulfonyl)phenyl]-3(2H)-pyridazinone]

- inhibition at 100 µM [1, 4]: 8%
- IC50 [2]: 166 nM
- melting point: 204 to 206 °C
SMILES: Cc1ccc(-c2c(-c3ccc(S(C)(=O)=O)cc3)cnn(-c3ccc(F)c(F)c3)c2=O)cc1F [Example 371, 2-(3,4-Difluorophenyl)-4-(3-fluoro-4-methylphenyl)-5-[4-(methylsulfonyl)phenyl]-3(2H)-pyridazinone]
